Assay results taken from BindingDB's records for doi:10.1021/cb500512z (University of Wisconsin-Milwaukee, 2014).

Target: Genome polyprotein (Hepacivirus C, UniProt A3EZJ3)
Assay: EMSA
Conditions: pH 7.5; 23 °C
Procedure: Binding assays containing 25 mM MOPS pH 7.5, 1.25 mM MgCl2, 20 nM Cy5-dT15, and 200 nM NS3h_1b were incubated 5 min at RT. Following addition of indicated concentrations of ebselen, the binding reactions were incubated another 5 min at 23 C.

Chain of Genome polyprotein (A3EZJ3 whole entry): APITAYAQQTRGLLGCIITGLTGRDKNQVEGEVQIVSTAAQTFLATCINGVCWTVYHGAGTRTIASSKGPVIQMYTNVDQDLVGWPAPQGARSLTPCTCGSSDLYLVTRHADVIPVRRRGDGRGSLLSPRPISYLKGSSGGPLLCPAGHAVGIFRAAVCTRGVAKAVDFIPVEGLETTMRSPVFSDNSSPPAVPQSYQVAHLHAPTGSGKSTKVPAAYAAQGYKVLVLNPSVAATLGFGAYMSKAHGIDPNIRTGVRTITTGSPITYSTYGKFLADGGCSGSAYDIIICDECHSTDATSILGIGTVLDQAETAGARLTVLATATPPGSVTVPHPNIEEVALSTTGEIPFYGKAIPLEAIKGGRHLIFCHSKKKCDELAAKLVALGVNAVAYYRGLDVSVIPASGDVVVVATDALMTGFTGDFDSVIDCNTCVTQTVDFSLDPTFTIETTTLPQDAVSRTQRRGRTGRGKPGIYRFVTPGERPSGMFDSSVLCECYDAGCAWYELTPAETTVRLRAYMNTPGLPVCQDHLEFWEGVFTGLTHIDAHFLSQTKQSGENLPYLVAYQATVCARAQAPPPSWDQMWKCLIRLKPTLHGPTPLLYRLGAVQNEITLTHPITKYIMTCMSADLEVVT

Compound: Cc1ccccc1NC(=O)Cn1sc2ccccc2c1=O
- IC50: 3.9 µM
